# Laboratory results from ChEMBL document CHEMBL1201862, “PubChem BioAssay data set” (2004).
# The source made the active and inactive calls.
# Legend:
# Phospholipase A2 = Phospholipase A2 (Homo sapiens, UniProt P04054); format: functional;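 also: confirmatory dose-response counterscreen on phospholipase A2, testing hits that came from an ultra-high-throughput screen for ATG4B inhibitors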
# Cysteine protease ATG4B = biological target: T1, Cysteine protease ATG4B (Homo sapiens, UniProt Q9Y4P1); format: functional;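 also: Fluorescence-based dose-response confirmation assay measuring inhibition of ATG4B activity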
# T1 sequence (Q9Y4P1 whole entry): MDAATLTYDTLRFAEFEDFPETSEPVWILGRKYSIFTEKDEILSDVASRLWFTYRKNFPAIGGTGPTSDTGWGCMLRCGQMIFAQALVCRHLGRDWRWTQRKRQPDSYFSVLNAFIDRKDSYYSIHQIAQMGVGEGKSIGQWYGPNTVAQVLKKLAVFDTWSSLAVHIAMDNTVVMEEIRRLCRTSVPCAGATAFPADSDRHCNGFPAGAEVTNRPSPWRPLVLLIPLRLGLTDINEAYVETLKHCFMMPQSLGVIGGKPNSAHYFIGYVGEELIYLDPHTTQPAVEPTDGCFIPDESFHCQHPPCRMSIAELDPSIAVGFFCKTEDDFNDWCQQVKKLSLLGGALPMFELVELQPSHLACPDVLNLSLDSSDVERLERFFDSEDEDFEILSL
# [1] = biological target: T2, Sentrin-specific protease 6 (Homo sapiens, UniProt Q9GZR1); test: SAR Analysis of small molecule inhibitors of Sentrin-specific protease 6 (SENP6) using a Luminescent assay. [Related pubchem assays (depositor defined):AID2582, AID2599]; format: functional
# T2 sequence (Q9GZR1 whole entry): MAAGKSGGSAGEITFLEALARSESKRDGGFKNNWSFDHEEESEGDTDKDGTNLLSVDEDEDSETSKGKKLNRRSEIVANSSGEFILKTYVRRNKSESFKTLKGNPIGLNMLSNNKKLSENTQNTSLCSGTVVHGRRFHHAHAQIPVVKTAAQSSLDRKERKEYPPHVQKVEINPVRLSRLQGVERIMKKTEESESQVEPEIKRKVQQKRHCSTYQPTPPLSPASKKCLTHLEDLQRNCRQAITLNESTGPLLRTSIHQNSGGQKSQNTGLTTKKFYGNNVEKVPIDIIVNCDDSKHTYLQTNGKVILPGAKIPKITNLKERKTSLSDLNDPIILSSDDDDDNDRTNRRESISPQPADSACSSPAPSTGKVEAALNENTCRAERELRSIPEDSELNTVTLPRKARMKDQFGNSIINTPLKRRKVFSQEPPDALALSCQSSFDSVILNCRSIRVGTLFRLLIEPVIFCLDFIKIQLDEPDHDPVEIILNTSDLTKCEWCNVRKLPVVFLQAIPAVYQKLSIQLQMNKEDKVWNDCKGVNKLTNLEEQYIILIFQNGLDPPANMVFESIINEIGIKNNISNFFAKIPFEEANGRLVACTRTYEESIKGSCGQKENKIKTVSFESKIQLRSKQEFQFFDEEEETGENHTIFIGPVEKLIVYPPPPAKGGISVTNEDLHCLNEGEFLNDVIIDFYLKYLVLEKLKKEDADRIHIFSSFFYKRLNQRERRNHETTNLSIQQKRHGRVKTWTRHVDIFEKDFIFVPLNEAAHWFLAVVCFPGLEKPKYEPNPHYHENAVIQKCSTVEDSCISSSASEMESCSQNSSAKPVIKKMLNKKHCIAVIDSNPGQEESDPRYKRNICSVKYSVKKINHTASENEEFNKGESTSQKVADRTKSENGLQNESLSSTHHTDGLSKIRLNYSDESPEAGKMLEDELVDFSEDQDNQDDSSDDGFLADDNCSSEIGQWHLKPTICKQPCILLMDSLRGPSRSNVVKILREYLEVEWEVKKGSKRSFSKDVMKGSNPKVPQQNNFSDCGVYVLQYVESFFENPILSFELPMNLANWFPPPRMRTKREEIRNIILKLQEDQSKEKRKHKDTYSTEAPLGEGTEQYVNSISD
# [2] = biological target: T3, Sentrin-specific protease 8 (Homo sapiens, UniProt Q96LD8); test: inhibition of human SENP8 cleavage activity – biochemical, luminescence, SAR follow-up (AID 504501); format: functional
# T3 sequence (Q96LD8 whole entry): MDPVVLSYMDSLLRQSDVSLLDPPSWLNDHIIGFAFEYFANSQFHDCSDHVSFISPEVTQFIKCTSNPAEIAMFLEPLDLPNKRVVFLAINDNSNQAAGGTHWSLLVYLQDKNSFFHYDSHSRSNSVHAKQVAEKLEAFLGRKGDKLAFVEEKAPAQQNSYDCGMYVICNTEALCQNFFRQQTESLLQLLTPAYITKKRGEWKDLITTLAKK
# [3] = biological target: T4, Sentrin-specific protease 7 (Homo sapiens, UniProt Q9BQF6); test: inhibition of human SENP7 cleavage activity – biochemical, luminescence, SAR follow-up (AID 504497); format: functional
# T4 sequence (Q9BQF6 whole entry): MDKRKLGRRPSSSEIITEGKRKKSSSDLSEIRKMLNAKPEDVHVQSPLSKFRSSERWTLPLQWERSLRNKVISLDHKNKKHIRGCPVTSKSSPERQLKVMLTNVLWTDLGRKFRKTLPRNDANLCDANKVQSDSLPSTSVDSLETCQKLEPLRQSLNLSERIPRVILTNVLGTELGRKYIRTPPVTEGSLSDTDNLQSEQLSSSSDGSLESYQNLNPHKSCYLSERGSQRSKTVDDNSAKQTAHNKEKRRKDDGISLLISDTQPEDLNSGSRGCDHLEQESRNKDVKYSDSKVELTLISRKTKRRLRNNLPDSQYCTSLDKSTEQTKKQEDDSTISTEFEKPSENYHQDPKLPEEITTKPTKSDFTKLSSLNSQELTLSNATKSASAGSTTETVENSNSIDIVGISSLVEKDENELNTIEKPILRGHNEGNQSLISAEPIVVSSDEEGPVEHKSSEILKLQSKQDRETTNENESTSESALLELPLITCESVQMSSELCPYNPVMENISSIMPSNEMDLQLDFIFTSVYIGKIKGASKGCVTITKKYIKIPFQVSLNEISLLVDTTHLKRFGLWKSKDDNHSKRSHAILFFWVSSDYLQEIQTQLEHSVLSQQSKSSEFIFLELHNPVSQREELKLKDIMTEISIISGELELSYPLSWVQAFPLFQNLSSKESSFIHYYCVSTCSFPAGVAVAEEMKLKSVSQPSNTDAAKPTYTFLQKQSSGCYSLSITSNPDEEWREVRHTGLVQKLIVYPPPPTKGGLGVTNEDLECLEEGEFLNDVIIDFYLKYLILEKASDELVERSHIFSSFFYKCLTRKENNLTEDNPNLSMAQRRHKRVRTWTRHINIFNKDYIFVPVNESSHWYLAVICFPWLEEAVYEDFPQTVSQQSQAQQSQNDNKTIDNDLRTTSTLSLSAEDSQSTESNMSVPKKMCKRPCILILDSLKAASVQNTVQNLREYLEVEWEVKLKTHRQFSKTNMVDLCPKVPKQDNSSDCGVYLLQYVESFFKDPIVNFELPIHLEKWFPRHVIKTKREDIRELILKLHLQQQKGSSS
# Caspase-3 = biological target: T5, Caspase-3 (Homo sapiens, UniProt P42574); test: SAR Analysis of small molecule inhibitors of Sentrin-specific proteases (SENPs) using a Caspase-3 Selectivity assay. [Related pubchem assays (depositor defined):AID2540, AID2599, AID434973, AID489001]; format: functional
# T5 sequence (P42574 whole entry): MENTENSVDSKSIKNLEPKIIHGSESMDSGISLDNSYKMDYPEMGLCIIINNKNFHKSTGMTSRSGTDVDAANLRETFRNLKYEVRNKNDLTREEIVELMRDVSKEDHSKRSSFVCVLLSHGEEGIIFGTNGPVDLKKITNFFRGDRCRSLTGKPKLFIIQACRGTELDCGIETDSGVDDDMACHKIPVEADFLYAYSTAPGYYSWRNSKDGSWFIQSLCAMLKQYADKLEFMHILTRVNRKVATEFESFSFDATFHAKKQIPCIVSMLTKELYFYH
# Orexin receptor type 2 [4] = biological target: T6, Orexin receptor type 2 (Homo sapiens, UniProt O43614); test: Counterscreen assay for antagonists of the orexin 1 receptor (OX1R; HCRTR1): Fluorescence-based cell-based dose response assay for antagonists of the orexin 2 receptor (OX2R; HCRTR2), run by assay provider.; format: functional
# T6 sequence (O43614 whole entry): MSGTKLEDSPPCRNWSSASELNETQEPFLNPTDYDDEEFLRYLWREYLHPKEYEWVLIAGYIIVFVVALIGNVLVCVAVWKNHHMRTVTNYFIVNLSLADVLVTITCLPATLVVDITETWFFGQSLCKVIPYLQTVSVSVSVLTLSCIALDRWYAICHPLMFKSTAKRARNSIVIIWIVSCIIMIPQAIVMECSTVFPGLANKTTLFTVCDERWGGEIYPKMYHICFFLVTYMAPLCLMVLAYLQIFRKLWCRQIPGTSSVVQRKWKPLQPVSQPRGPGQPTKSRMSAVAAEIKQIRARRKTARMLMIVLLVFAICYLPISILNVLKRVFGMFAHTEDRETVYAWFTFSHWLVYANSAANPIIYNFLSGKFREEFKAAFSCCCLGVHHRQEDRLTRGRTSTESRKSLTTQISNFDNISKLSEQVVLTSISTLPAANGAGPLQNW
# CHO-K1 = test: (§1) Counterscreen for antagonists of the orexin 1 receptor (OX1R; HCRTR1): Homogeneous time resolved fluorescence (HTRF)-based cell-based dose response assay to identify antagonists of the parental CHO-K1 cell line. [Related pubchem assays (depositor defined):AID434989, AID435008, AID463079, AID485270, AID492963, AID492964, AID492965, AID493232, AID504699, AID504701]; format: functional; conditions: Cricetulus griseus
# [5] = biological target: T7, Orexin/Hypocretin receptor type 1 (Homo sapiens, UniProt O43613); test: Homogeneous Time Resolved Fluorescence (HTRF)-based cell-based high throughput dose response assay for antagonists of the orexin 1 receptor (OX1R; HCRTR1). [Related pubchem assays (depositor defined):AID434989, AID435008, AID463079, AID485270, AID492963, AID492964, AID492965, AID493232, AID504717, AID504718]; format: functional
# T7 sequence (O43613 whole entry): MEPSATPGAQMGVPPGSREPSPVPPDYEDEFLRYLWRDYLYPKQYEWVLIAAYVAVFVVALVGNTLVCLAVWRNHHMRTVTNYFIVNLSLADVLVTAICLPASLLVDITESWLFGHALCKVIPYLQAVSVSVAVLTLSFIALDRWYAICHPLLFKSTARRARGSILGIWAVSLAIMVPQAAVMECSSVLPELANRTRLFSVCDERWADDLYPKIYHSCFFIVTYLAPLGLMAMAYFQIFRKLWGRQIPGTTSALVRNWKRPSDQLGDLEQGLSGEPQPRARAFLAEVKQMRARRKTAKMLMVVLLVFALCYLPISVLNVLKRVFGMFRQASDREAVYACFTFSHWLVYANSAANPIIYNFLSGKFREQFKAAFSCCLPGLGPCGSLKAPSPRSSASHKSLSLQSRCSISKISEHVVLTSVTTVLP
# [6] = biological target: T7, Orexin/Hypocretin receptor type 1; test: Fluorescence-based cell-based high throughput dose response assay for antagonists of the orexin 1 receptor (OX1R; HCRTR1). [Related pubchem assays (depositor defined):AID434989, AID435008, AID463079, AID485270, AID492963, AID492964, AID492965, AID493232, AID504717, AID504718]; format: functional
# [7] = as §1, with “Fluorescence-based” for “Homogeneous time resolved fluorescence (HTRF)-based”, “cell-based high throughput” for “cell-based”, “CHO” for “CHO-K1”; format: functional
# Orexin receptor type 2 [8] = biological target: T6, Orexin receptor type 2; test: Counterscreen assay for antagonists of the orexin 1 receptor (OX1R; HCRTR1): Homogeneous Time Resolved Fluorescence (HTRF)-based cell-based dose response assay for antagonists of the orexin 2 receptor (OX2R; HCRTR2), run by assay provider.; format: functional
# [9] = Luminescence Cell-Based Dose Response HTS to Identify Inhibitors of 5'UTR Stem-Loop Driven Prion Protein mRNA Translation in H4 Neuroglioblastoma Cells. [Related pubchem assays: 1827 (Project Summary), 1813 (Primary HTS)]; format: functional
# [10] = luciferase reporter signal suppression in cells – H4 neuroglioma cells, luminescence, dose response (AID 1990); format: functional, cell-based
# [11] = biological target: Peroxisome proliferator-activated receptor gamma/Nuclear receptor coactivator 2 (Homo sapiens, UniProt P37231); test: (§2) TR-FRET dose response biochemical High Throughput Screening assay for agonists of the steroid receptor coactivator 2 (SRC-2) recruitment by the peroxisome proliferator-activated receptor gamma (PPAR gamma): non-selective agonists. [Related pubchem assays: 1297, 1032 ]; format: functional
# Vero = test: cells; format: functional, cell-based; conditions: Chlorocebus sabaeus
# [12] = biological target: Peroxisome proliferator-activated receptor gamma/Nuclear receptor coactivator 3 (Homo sapiens, UniProt P37231); test: as §2, with “3 (SRC-3)” for “2 (SRC-2)”, “1301 (Confirmation screen.), 1048 (Primary screen.)]” for “1297, 1032 ]”; format: functional
# [13] = biological target: Peroxisome proliferator-activated receptor gamma/Nuclear receptor coactivator 1 (Homo sapiens, UniProt P37231); test: as §2, with “1 (SRC-1)” for “2 (SRC-2)”, “assays (depositor defined):AID1300, AID1808, AID504735, AID631]” for “assays: 1297, 1032 ]”; format: protein assay
# [14] = alpha-synuclein stem-loop luciferase translation blockers – H4 neuroglioma cells, luminescence, confirmation (AID 1988); format: functional, cell-based
# Chain of Phospholipase A2 (P04054 whole entry): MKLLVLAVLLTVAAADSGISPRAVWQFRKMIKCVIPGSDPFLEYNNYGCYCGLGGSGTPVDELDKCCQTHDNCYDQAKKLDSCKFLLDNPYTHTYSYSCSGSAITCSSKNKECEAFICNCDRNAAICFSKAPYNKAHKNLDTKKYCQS
# Chain of Peroxisome proliferator-activated receptor gamma/Nuclear receptor coactivator 2 (P37231 whole entry): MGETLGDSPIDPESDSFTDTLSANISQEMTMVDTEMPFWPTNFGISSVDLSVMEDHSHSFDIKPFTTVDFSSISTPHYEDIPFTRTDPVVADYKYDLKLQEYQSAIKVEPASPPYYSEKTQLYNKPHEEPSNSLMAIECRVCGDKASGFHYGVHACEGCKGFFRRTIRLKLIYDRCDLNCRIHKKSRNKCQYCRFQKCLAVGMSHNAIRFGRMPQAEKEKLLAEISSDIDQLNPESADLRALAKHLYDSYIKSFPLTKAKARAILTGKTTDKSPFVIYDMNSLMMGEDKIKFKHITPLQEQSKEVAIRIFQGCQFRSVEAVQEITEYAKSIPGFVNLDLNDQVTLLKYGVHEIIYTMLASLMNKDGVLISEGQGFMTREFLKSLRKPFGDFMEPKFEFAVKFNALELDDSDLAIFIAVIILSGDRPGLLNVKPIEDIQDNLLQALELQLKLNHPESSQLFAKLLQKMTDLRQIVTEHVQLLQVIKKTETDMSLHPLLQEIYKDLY
# Chain of Peroxisome proliferator-activated receptor gamma/Nuclear receptor coactivator 2 (Q15596 whole entry, further chain): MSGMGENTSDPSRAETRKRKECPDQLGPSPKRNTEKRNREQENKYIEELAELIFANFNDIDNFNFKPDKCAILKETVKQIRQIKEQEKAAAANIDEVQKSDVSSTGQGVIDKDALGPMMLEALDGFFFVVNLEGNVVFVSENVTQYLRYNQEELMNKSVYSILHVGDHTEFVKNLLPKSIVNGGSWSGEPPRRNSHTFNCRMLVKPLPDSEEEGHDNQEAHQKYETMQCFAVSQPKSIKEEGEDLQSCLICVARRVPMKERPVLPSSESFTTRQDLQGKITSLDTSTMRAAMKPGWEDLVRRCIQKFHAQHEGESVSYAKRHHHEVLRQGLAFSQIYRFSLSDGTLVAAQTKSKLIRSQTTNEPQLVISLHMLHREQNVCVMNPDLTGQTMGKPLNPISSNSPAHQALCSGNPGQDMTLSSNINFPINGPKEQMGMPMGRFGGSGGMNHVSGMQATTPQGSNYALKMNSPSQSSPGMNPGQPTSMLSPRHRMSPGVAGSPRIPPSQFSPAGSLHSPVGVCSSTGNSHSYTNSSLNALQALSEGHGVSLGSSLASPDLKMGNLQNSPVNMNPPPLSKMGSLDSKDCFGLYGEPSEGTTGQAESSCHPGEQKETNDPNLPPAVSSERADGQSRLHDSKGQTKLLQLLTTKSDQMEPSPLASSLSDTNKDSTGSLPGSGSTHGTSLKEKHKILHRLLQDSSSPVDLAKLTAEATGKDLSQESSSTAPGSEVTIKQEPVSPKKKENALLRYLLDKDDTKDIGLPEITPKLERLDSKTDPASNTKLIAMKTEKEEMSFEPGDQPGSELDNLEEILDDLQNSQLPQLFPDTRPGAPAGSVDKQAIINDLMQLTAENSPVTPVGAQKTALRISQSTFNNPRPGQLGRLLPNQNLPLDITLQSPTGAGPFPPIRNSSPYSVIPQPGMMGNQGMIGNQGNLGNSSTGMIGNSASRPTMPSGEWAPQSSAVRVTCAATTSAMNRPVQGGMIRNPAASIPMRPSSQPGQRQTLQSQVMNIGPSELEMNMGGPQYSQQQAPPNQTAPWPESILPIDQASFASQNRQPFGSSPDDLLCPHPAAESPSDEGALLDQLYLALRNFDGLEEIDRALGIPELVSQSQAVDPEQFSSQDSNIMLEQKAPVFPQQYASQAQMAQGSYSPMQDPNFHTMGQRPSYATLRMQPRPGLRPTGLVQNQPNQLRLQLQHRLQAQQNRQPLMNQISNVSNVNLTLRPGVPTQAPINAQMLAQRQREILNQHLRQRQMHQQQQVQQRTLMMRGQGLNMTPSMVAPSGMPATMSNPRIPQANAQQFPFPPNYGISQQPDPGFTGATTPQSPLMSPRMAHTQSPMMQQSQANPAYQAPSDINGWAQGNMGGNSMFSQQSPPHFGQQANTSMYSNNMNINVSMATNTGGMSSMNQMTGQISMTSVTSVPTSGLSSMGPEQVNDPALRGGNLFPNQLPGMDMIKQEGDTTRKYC
# Chain of Peroxisome proliferator-activated receptor gamma/Nuclear receptor coactivator 1 (P37231 whole entry): as the sequence (P37231 whole entry) above
# Chain of Peroxisome proliferator-activated receptor gamma/Nuclear receptor coactivator 1 (Q15788 whole entry, further chain): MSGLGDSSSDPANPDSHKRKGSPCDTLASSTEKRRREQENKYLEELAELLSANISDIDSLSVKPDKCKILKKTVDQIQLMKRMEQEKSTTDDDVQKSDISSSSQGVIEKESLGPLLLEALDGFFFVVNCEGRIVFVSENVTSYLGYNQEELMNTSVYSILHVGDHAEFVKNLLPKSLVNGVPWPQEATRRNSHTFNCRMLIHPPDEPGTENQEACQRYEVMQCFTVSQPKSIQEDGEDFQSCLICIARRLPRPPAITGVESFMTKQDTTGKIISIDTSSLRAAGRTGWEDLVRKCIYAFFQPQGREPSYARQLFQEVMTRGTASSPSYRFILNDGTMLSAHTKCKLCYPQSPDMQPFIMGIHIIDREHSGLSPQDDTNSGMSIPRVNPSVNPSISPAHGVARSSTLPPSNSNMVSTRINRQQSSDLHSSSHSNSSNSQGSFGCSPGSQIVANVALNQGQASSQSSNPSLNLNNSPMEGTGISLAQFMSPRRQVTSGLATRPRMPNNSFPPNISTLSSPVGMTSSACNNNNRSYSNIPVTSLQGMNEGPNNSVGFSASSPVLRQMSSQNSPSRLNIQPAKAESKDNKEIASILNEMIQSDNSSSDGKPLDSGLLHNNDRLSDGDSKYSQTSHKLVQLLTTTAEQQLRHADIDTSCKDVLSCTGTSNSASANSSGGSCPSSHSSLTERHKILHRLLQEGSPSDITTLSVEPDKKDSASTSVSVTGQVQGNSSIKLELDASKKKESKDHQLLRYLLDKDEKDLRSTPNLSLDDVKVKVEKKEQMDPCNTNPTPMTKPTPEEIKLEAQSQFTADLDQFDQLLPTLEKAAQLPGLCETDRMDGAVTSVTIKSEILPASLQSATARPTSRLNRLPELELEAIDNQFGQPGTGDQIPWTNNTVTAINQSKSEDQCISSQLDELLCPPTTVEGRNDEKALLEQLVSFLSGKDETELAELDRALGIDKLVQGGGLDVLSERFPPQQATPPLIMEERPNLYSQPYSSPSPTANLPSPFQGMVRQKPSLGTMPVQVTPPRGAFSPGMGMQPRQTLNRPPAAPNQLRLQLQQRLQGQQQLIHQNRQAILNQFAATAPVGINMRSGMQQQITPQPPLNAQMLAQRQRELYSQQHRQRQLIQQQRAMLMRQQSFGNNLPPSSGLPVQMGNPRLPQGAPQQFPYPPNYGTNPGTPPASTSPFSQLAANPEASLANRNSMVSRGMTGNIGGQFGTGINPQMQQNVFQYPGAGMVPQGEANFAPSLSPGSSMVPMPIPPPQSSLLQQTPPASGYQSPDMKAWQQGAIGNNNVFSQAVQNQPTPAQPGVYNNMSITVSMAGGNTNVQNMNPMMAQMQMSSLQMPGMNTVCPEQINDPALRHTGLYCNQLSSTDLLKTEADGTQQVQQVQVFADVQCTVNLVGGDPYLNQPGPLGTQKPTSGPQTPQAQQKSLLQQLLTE
compound,measurement,setting,value
CC1CCc2sc(C(=O)N3CCC(C(N)=O)CC3)cc2C1 (configuration not stated),IC50,Phospholipase A2,9.91 µM (active)
same,IC50,Cysteine protease ATG4B,13.2 µM (active)
NC(=O)c1ccc(NC(=O)c2ccc3c(c2)OCO3)cc1,IC50,[1],> 99 µM (inactive)
same,IC50,[2],> 99 µM (inactive)
same,IC50,[3],12.9 µM (active)
same,IC50,Caspase-3,7.08 µM (active)
c1ccc(CN2CCN(C3CCCSc4ccccc43)CC2)cc1 (configuration not stated),IC50,Orexin receptor type 2 [4],> 88.8 µM (inactive)
same,IC50,CHO-K1,> 66.2 µM (inactive)
same,IC50,[5],1.59 µM (active)
same,IC50,[6],23.9 µM (inactive)
same,IC50,[7],> 49.8 µM (inactive)
same,IC50,Orexin receptor type 2 [8],> 50 µM (inactive)
Brc1ccc(-c2nc(/C=C/c3ccccc3)no2)cc1,IC50,[1],> 99 µM (inactive)
same,IC50,[2],> 99 µM (inactive)
same,IC50,[3],> 99 µM (inactive)
same,IC50,Caspase-3,> 99 µM (inactive)
COC(=O)c1ccccc1NC1=C/C(=N/S(=O)(=O)c2cccs2)c2ccccc2C1=O,IC50,[1],2.15 µM (active)
same,IC50,[2],4.02 µM (active)
same,IC50,[3],2.42 µM (active)
same,IC50,Caspase-3,24.5 µM (active)
Cc1ccccc1-c1nnc(S)n1/N=C/c1ccc(-c2ccccc2Br)o1,EC50,[9],13.9 µM (active)
same,EC50,[10],18.7 µM (active)
same,EC50,[11],28.6 µM (not active)
same,IC50,Vero,2.91 µM (active)
same,EC50,[12],> 79.4 µM (not active)
same,EC50,[13],29.4 µM (inactive)
same,EC50,[14],11.7 µM (active)
